{
  "source": "patent US20260275280A1",
  "about": "“DIRECTED DIFFERENTIATION PROTOCOLS TO DERIVE BONE FIDE SPINAL SENSORY INTERNEURONS” (THE REGENTS OF THE UNIVERSITY OF CALIFORNIA, priority 2022, published 2026)",
  "key": {"[1]": {"tested_on": "dorsal NPCs in mESC-derived EBs", "test": "Embryoid body proliferation assay (EdU incorporation, pH3) with CHIR", "assay_type": "cell-based, mouse", "method": "Embryoid body (EB) culture. and expansion: To initiate EB formation, dissociated embryonic stem cells were seeded in low attachment plates (Corning) at 10^5 cells/ml density in N2/B27 medium supplemented with 10 ng/ml bFGF. To induce posterior spinal cord and dorsal spinal patterning, RA and RA+BMP4 were added using the same timeline as described for the 2D differentiation, and the media was changed at every other day after day 5.\nFor EBs, EBs were collected and fixed with fresh 4% PFA for 20 minutes at 4° C. EBs were then equilibrated with 30% sucrose for overnight at 4C and embedded into the OCT compound for cryo-sectioning. 12 um sections were collected onto positive charged slides (VVVR), incubated with the antibody blocking solution for 1 hr, and then stained as above.\nImage quantification: To count the number of nuclei, images were converted to 8 bit image in ImageJ, their threshold intensity was adjusted to capture only the florescent nuclei, and the number of nuclei counted using the analyze particle tool in ImageJ. For each image, the area under the DAPI staining was determined using ImageJ and target cells were represented as % of cells in 100 μm^2 DAPI^+ area.\nWe then asked whether activating Wnt signaling in mESC-derived NMPs affected their mitotic index. To better visualize proliferation, mESCs were permitted to assemble into three dimensional EBs (Andrews et al., 2017; Duval et al., 2019; Gupta et al., 2018), and then treated with RA±BMP4 over the same timeline as protocol 1 and 3 (FIG. 1B) to induce dorsal spinal cord patterning. EBs were then cultured with either DMSO or CHIR from day 5 to day 9 (FIG. 6C), when the cultures were pulsed with 5-Ethynyl-2′-deoxyuridine (EdU) to label cells in S-phase of the cell cycle. Strikingly, there was a ~3-fold increase in EdU+cells in CHIR-treated EBs (FIG. 6E, 6G, 6H) compared to DMSO control (FIG. 6D, 6F, 6H) in both protocols. […] Many of the dividing cells in the CHIR-treated cultures were Sox2+NPCs (FIG. 6E, 6G), while NPCs are largely depleted by day 9 in control cultures (FIG. 6D, 6F). Thus, extending the window of Wnt signaling appears to prolong NPC proliferation."}, "[2]": {"tested_on": "mESC-derived NPCs", "test": "Expansion culture: serial passaging of RA±BMP4 patterned EBs in CHIR or DMSO", "assay_type": "cell-based, mouse", "method": "For expansion cultures. EBs were dissociated in single cell suspension at day 6 by treating with 0.25% Trypsin, followed by trituration to break up the larger cell clumps. Cells were pelleted and passaged in N2/B27 medium containing either DMSO or 5 μM CHIR at 1:3 dilution. Media was changed at every third day during the expansion culture.\nFinally, we assessed whether the mitogenic properties of Wnt signaling can be leveraged to expand the pool of mESC-derived NPCs. RA±BMP4 patterned EBs were serially passaged at 1:3 dilution […] in the presence of DMSO (control) or CHIR (FIG. 7A).\nEmbryonic stem cells are first directed to a day 4 neural precursor cell (NPC) state, and then Wnt signaling is continually switched on using CHIR, which starts the process of proliferation. The cells are then passaged every 6 days. with a 1:3 split. Control NPCs die almost immediately, while “expanded” cells keep dividing for as long as they have been passaged to date (three months). These NPCs can then be differentiated. Differentiation of the expanded cultures without any further signals yields dI3s and dI5s. A further pulse for two days with RA (day 3-5), produces dI4, dI5 and dI6. Pulsing them with RA+BMP4, yields dI1, dI2 and dW3.\nThus, a method of keeping dorsal progenitors (dPs) in a proliferative state for many passages (perhaps indefinitely) is provided. The proliferative state can be maintained without changing the fate potential of the dPs. mESCs are first patterned according to either the RA or RA+BMP4 protocol, up to day 6. After patterning, the dPs are then reintroduced to medium containing CHIR (Wnt agonist, that stimulates Wnt signaling). The CHIR-treated cultures can then serially expand 3-fold every 6 days (a passage), unlike control (DMSO-treated) cells, which start dying at passage 2 (FIG. 7). To date we have expanded dPs for 7-8 passages, i.e. a couple of months."}, "[3]": {"details": "RA±BMP4 patterned EBs, CHIR day 5 to day 9"}},
  "note": "“Also recorded” adds a separate entry of the source.",
  "data": [
    {"compound": "Cc1c[nH]c(-c2cnc(NCCNc3ccc(C#N)cn3)nc2-c2ccc(Cl)cc2Cl)n1", "note": "[CHIR, CHIR99021]", "values": [
      {"measurement": "increase in EdU+ cells compared to DMSO control", "setting": "[1]; [3]", "value": "~ 3 fold"},
      {"measurement": "increase in the number of pHistone H3 (pH3)+ cells compared to control", "setting": "[1]; [3]", "value": "2-4 fold"},
      {"measurement": "increase in cell proliferation (EdU+ and pH3+ cells) compared to DMSO", "setting": "[1]; RA±BMP4 patterned EBs, n=15-25 EBs", "value": "~ 3 fold"},
      {"measurement": "identity of CHIR-treated NPCs (Pax3, Pax7, Olig3)", "setting": "[1]; protocol 1 and protocol 3 EBs, day 9", "value": "retained their original identity; also recorded: does not significantly (unpaired t-test) alter their dorsal-ventral identities"},
      {"measurement": "EB size over three consecutive passages", "setting": "[2]; CHIR vs DMSO, RA and RA+BMP4 patterned EBs", "value": "decrease in EB size"},
      {"measurement": "Sox2+ NPC identity after passaging", "setting": "[2]; CHIR-treated EBs", "value": "remained Sox2^+ after multiple passages"},
      {"measurement": "serial expansion of CHIR-treated cultures every 6 days (a passage)", "setting": "[2]; Example 2", "value": 3, "unit": "fold"},
      {"measurement": "increase in the number of EBs after each passage compared to DMSO-treated EBs", "setting": "[2]; RA- and RA+BMP4-treated EBs", "value": "> 6", "unit": "fold"},
      {"measurement": "increase in the number of CHIR-treated EBs by the third passage", "setting": "[2]; passaged 1:3 every 7 days", "value": "3- to 6 fold"}
    ]}
  ]
}
